# Laboratory results: patent publication US5182378A, “Sulfate derivatives of galactan extracted from Klebsiella” (Roussel Uclaf, priority 1989, dated 1993)
# Assays:
# [1] = system: syncitia formation in co-culture of H 9 III cells (chronically infected) with SUP T1 cells; test: Inhibition of syncitia (co-culture of H 9 III cells with SUP T1 cells); type: cell-based, HIV; conditions: for Percentage of inhibition (syncitia), H 9 III cells: H 9 III cells pre-incubated with product one night at 37° C. before co-culture; for Percentage of inhibition (syncitia), Sup Ti cells: Sup Ti cells pre-incubated with product one night at 37° C. before co-culture; for Percentage of inhibition (syncitia), Test no. 1 / Percentage of inhibition (syncitia), Test no. 2: co-culture with product without previous incubation
# Procedure: The activity of the sulfate derivative of galactan extracted from Klebsiella was determined by measurement of the inhibition of syncitia [Gruters et al, Nature, Vol. 330, p. 74 to 77, (5 Nov. 1987)] and by determination of the protective activity exercised vis-a-vis certain cell cultures.
# A co-culture of H 9 III cells (chronically infected 10^5 cells/ml) with SUP T1 cells (non-infected: 2×10^5 cells/ml) was carried out and there was syncitia formation which was counted with a microscope. Each type of cell was pre-incubated or non-preincubated with the studied product for one night at 37° C. If there was no pre-incubation, the studied product was added to cells at the moment the culture was carried out. When there was inhibition of Syncitia formation in the treated cells relative to the control cells, the studied product was protective. The results obtained are shown hereafter.
# HIV virus (MT4 cells) = test: MT4 / MTT test (inhibition of the infection of MT4 cells); type: cell-based; conditions: 7 days at 37° C., MTT reading
# Procedure: technique: 100 microliter dilutions of the virus in series in a microtitration plate addition of 100 microliters of cellular suspension containing 5×10^4 MT4 cells culture 7 days at 37° C., 5% CO2 addition of MTT (tetrazolium salt viability coloring agent) incubation 4 hours at 37° C. halting the reaction by the addition of a hydrochloric acid solution in isopropane reading of the optical density (OD) at 540 nm (after dissolution of the crystals).
# MT4 cells at 10^6 cells/ml were used and dilution to 1/2 took place with or without the studied product at different concentrations. 100 microliters of HIV virus at different dilutions and 100 microliters of pre-treated cell suspension were introduced onto a microtitration plate. Incubation took place at 37° C. for 7 days and the MTT was added and a reading was taken with a spectrophotometer. The percentage inhibition of the infection of MT4 cells was determined and the results are shown hereafter: […]
# HIV virus (H9 cells) = test: H9 test (reverse transcriptase on supernatant and immunofluorescence on cells); type: cell-based; conditions: D+11; for Reverse Transcriptase % inhibition / Reverse Transcriptase cpm/cm^3 × 10^4: H9 cells supernatant; for Immunofluorescence % fluorescent cells / Immunofluorescence % inhibition: H9 cells
# Procedure: H9 cells were used which were treated with polybrene, washed, and taken up in 100 microliters of medium, with or without the studied product at different concentrations. After incubating for 2 hours at 37° C. 100 microliters of HIV virus at 1/10 were added and the mixture was kept for 1 hour at 37° C. and then washed. The cells were taken up in 1 ml of medium with or without the studied product, and distributed into 2 wells, 500 microliters per well and 2×10^5 cells by well. On D+4, 500 microliters of culture medium with or without the studied product were added. On D+8, half of the supernatant was replaced with new medium. On D+11, a quantitative analysis by reverse transcriptase was carried out on the supernatant and an immunofluorescent determination was carried out on the cells. The results are shown hereafter.
substance,measurement,setting,value
Sulfate derivative of the qalactan extracted from Klebsiella [Example 1],"Percentage of inhibition (syncitia), H 9 III cells",[1]; 1 micrograms/cm^3,17%
same,"Percentage of inhibition (syncitia), Sup Ti cells",[1]; 1 micrograms/cm^3,23%
same,"Percentage of inhibition (syncitia), Test no. 1",[1]; 1 micrograms/cm^3,0%
same,"Percentage of inhibition (syncitia), Test no. 2",[1]; 1 micrograms/cm^3,10%
same,"Percentage of inhibition (syncitia), H 9 III cells",[1]; 10 micrograms/cm^3,23%
same,"Percentage of inhibition (syncitia), Sup Ti cells",[1]; 10 micrograms/cm^3,27%
same,"Percentage of inhibition (syncitia), Test no. 1",[1]; 10 micrograms/cm^3,42%
same,"Percentage of inhibition (syncitia), Test no. 2",[1]; 10 micrograms/cm^3,17%
same,"Percentage of inhibition (syncitia), H 9 III cells",[1]; 100 micrograms/cm^3,100%
same,"Percentage of inhibition (syncitia), Sup Ti cells",[1]; 100 micrograms/cm^3,100%
same,"Percentage of inhibition (syncitia), Test no. 1",[1]; 100 micrograms/cm^3,100%
same,"Percentage of inhibition (syncitia), Test no. 2",[1]; 100 micrograms/cm^3,100%
same,Percentage of inhibition of the infection of MT4 cells,HIV virus (MT4 cells); 1 micrograms/cm^3,74%
same,Percentage of inhibition of the infection of MT4 cells,HIV virus (MT4 cells); 10 micrograms/cm^3,99%
same,Percentage of inhibition of the infection of MT4 cells,HIV virus (MT4 cells); 100 micrograms/cm^3,84%
same,Reverse Transcriptase % inhibition,HIV virus (H9 cells); 1 micrograms/cm^3,76%
same,Reverse Transcriptase cpm/cm^3 × 10^4,HIV virus (H9 cells); 1 micrograms/cm^3,6.42 cpm/cm^3 × 10^4
same,Immunofluorescence % fluorescent cells,HIV virus (H9 cells); 1 micrograms/cm^3,3%
same,Immunofluorescence % inhibition,HIV virus (H9 cells); 1 micrograms/cm^3,94%
same,Reverse Transcriptase % inhibition,HIV virus (H9 cells); 10 micrograms/cm^3,100%
same,Reverse Transcriptase cpm/cm^3 × 10^4,HIV virus (H9 cells); 10 micrograms/cm^3,1.16 cpm/cm^3 × 10^4
same,Immunofluorescence % fluorescent cells,HIV virus (H9 cells); 10 micrograms/cm^3,0%
same,Immunofluorescence % inhibition,HIV virus (H9 cells); 10 micrograms/cm^3,100%
same,Reverse Transcriptase % inhibition,HIV virus (H9 cells); 100 micrograms/cm^3,100%
same,Reverse Transcriptase cpm/cm^3 × 10^4,HIV virus (H9 cells); 100 micrograms/cm^3,1.12 cpm/cm^3 × 10^4
same,Immunofluorescence % fluorescent cells,HIV virus (H9 cells); 100 micrograms/cm^3,0%
same,Immunofluorescence % inhibition,HIV virus (H9 cells); 100 micrograms/cm^3,100%
